From PubChem BioAssay (NCI)
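Five concentrations, 48 hours, 96-well plates. GI50 = concentration required for 50% inhibition of growth. TGI marks complete inhibition of growth.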

What was measured:
Assay in all cases: NCI anticancer screen, dose series, 48 h
IGROV1 ovarian = tested on: IGROV1 ovarian
HT29 colon = tested on: HT29 colon
NCI-H522 lung = tested on: NCI-H522 lung
SNB-75 CNS = tested on: SNB-75 CNS
UACC-62 melanoma = tested on: UACC-62 melanoma
HOP-92 NSCLC = tested on: HOP-92 NSCLC
NCI-H23 lung = tested on: NCI-H23 lung
SR leukemia = tested on: SR leukemia
786-0 renal = tested on: 786-0 renal
HOP-62 NSCLC = tested on: HOP-62 NSCLC
NCI/ADR-RES ovarian = tested on: NCI/ADR-RES ovarian
SN12C renal = tested on: SN12C renal
UO-31 renal = tested on: UO-31 renal
RPMI-8226 leukemia = tested on: RPMI-8226 leukemia
MDA-MB-435 = tested on: MDA-MB-435
SNB-19 CNS = tested on: SNB-19 CNS
TK-10 renal = tested on: TK-10 renal
K-562 leukemia = tested on: K-562 leukemia
SK-MEL-28 melanoma = tested on: SK-MEL-28 melanoma
OVCAR-4 ovarian = tested on: OVCAR-4 ovarian
NCI-H460 lung = tested on: NCI-H460 lung
HCT-15 colon = tested on: HCT-15 colon
A549 NSCLC = tested on: A549 NSCLC
KM12 colon = tested on: KM12 colon
NCI-H226 lung = tested on: NCI-H226 lung
CAKI-1 renal = tested on: CAKI-1 renal
BT-549 breast = tested on: BT-549 breast
HCC-2998 colon = tested on: HCC-2998 colon
OVCAR-8 ovarian = tested on: OVCAR-8 ovarian
M14 melanoma = tested on: M14 melanoma
MOLT-4 leukemia = tested on: MOLT-4 leukemia
SK-MEL-5 melanoma = tested on: SK-MEL-5 melanoma
ACHN renal = tested on: ACHN renal
HL-60(TB) leukemia = tested on: HL-60(TB) leukemia
LOX IMVI melanoma = tested on: LOX IMVI melanoma
SK-MEL-2 melanoma = tested on: SK-MEL-2 melanoma
SW-620 colon = tested on: SW-620 colon
MCF7 breast = tested on: MCF7 breast
RXF 393 renal = tested on: RXF 393 renal
SF-295 CNS = tested on: SF-295 CNS
HS 578T breast = tested on: HS 578T breast
PC-3 prostate = tested on: PC-3 prostate
SK-OV-3 ovarian = tested on: SK-OV-3 ovarian
U251 CNS = tested on: U251 CNS
COLO 205 colon = tested on: COLO 205 colon
OVCAR-3 ovarian = tested on: OVCAR-3 ovarian
OVCAR-5 ovarian = tested on: OVCAR-5 ovarian
SF-539 CNS = tested on: SF-539 CNS
MALME-3M melanoma = tested on: MALME-3M melanoma
SF-268 CNS = tested on: SF-268 CNS
A498 renal = tested on: A498 renal
MDA-MB-231 breast = tested on: MDA-MB-231 breast
CCRF-CEM leukemia = tested on: CCRF-CEM leukemia
HCT-116 colon = tested on: HCT-116 colon
UACC-257 melanoma = tested on: UACC-257 melanoma
T-47D breast = tested on: T-47D breast
DU-145 prostate = tested on: DU-145 prostate

Which results are given for `Nc1c(C(=O)c2ccc(C#CCN3CCOCC3)cc2)cnn1-c1ccc(F)cc1`?
GI50 (IGROV1 ovarian): > 25 µM; TGI (IGROV1 ovarian): > 25 µM; GI50 (HT29 colon): > 25 µM; TGI (HT29 colon): > 25 µM; GI50 (NCI-H522 lung): > 25 µM; TGI (NCI-H522 lung): > 25 µM; GI50 (SNB-75 CNS): > 25 µM; TGI (SNB-75 CNS): > 25 µM; GI50 (UACC-62 melanoma): > 25 µM; TGI (UACC-62 melanoma): > 25 µM; GI50 (HOP-92 NSCLC): > 25 µM; TGI (HOP-92 NSCLC): > 25 µM; GI50 (NCI-H23 lung): > 25 µM; TGI (NCI-H23 lung): > 25 µM; GI50 (SR leukemia): > 25 µM; TGI (SR leukemia): > 25 µM; GI50 (786-0 renal): > 25 µM; TGI (786-0 renal): > 25 µM; GI50 (HOP-62 NSCLC): > 25 µM; TGI (HOP-62 NSCLC): > 25 µM; GI50 (NCI/ADR-RES ovarian): > 25 µM; TGI (NCI/ADR-RES ovarian): > 25 µM; GI50 (SN12C renal): > 25 µM; TGI (SN12C renal): > 25 µM; GI50 (UO-31 renal): > 25 µM; TGI (UO-31 renal): > 25 µM; GI50 (RPMI-8226 leukemia): > 25 µM; TGI (RPMI-8226 leukemia): > 25 µM; GI50 (MDA-MB-435): > 25 µM; TGI (MDA-MB-435): > 25 µM; GI50 (SNB-19 CNS): > 25 µM; TGI (SNB-19 CNS): > 25 µM; GI50 (TK-10 renal): > 25 µM; TGI (TK-10 renal): > 25 µM; GI50 (K-562 leukemia): > 25 µM; TGI (K-562 leukemia): > 25 µM; GI50 (SK-MEL-28 melanoma): > 25 µM; TGI (SK-MEL-28 melanoma): > 25 µM; GI50 (OVCAR-4 ovarian): > 25 µM; TGI (OVCAR-4 ovarian): > 25 µM; GI50 (NCI-H460 lung): > 25 µM; TGI (NCI-H460 lung): > 25 µM; GI50 (HCT-15 colon): > 25 µM; TGI (HCT-15 colon): > 25 µM; GI50 (A549 NSCLC): > 25 µM; TGI (A549 NSCLC): > 25 µM; GI50 (KM12 colon): > 25 µM; TGI (KM12 colon): > 25 µM; GI50 (NCI-H226 lung): > 25 µM; TGI (NCI-H226 lung): > 25 µM; GI50 (CAKI-1 renal): > 25 µM; TGI (CAKI-1 renal): > 25 µM; GI50 (BT-549 breast): > 25 µM; TGI (BT-549 breast): > 25 µM; GI50 (HCC-2998 colon): > 25 µM; TGI (HCC-2998 colon): > 25 µM; GI50 (OVCAR-8 ovarian): > 25 µM; TGI (OVCAR-8 ovarian): > 25 µM; GI50 (M14 melanoma): > 25 µM; TGI (M14 melanoma): > 25 µM; GI50 (MOLT-4 leukemia): > 25 µM; TGI (MOLT-4 leukemia): > 25 µM; GI50 (SK-MEL-5 melanoma): > 25 µM; TGI (SK-MEL-5 melanoma): > 25 µM; GI50 (ACHN renal): > 25 µM; TGI (ACHN renal): > 25 µM; GI50 (HL-60(TB) leukemia): > 25 µM; TGI (HL-60(TB) leukemia): > 25 µM; GI50 (LOX IMVI melanoma): > 25 µM; TGI (LOX IMVI melanoma): > 25 µM; GI50 (SK-MEL-2 melanoma): > 25 µM; TGI (SK-MEL-2 melanoma): > 25 µM; GI50 (SW-620 colon): > 25 µM; TGI (SW-620 colon): > 25 µM; GI50 (MCF7 breast): > 25 µM; TGI (MCF7 breast): > 25 µM; GI50 (RXF 393 renal): > 25 µM; TGI (RXF 393 renal): > 25 µM; GI50 (SF-295 CNS): > 25 µM; TGI (SF-295 CNS): > 25 µM; GI50 (HS 578T breast): > 25 µM; TGI (HS 578T breast): > 25 µM; GI50 (PC-3 prostate): > 25 µM; TGI (PC-3 prostate): > 25 µM; GI50 (SK-OV-3 ovarian): > 25 µM; TGI (SK-OV-3 ovarian): > 25 µM; GI50 (U251 CNS): > 25 µM; TGI (U251 CNS): > 25 µM; GI50 (COLO 205 colon): > 25 µM; TGI (COLO 205 colon): > 25 µM; GI50 (OVCAR-3 ovarian): > 25 µM; TGI (OVCAR-3 ovarian): > 25 µM; GI50 (OVCAR-5 ovarian): > 25 µM; TGI (OVCAR-5 ovarian): > 25 µM; GI50 (SF-539 CNS): > 25 µM; TGI (SF-539 CNS): > 25 µM; GI50 (MALME-3M melanoma): > 25 µM; TGI (MALME-3M melanoma): > 25 µM; GI50 (SF-268 CNS): > 25 µM; TGI (SF-268 CNS): > 25 µM; GI50 (A498 renal): > 25 µM; TGI (A498 renal): > 25 µM; GI50 (MDA-MB-231 breast): > 25 µM; TGI (MDA-MB-231 breast): > 25 µM; GI50 (CCRF-CEM leukemia): > 25 µM; TGI (CCRF-CEM leukemia): > 25 µM; GI50 (HCT-116 colon): > 25 µM; TGI (HCT-116 colon): > 25 µM; GI50 (UACC-257 melanoma): > 25 µM; TGI (UACC-257 melanoma): > 25 µM; GI50 (T-47D breast): > 25 µM; TGI (T-47D breast): > 25 µM; GI50 (DU-145 prostate): > 25 µM; TGI (DU-145 prostate): > 25 µM
